Patent publication US20180161310A1, “COMPOUNDS AND METHODS FOR THE TREATMENT OF NEUROLOGICAL DISORDERS” (Teleos Therapeutics, LLC, priority 2016, published 2018)
Read-outs that look alike come from different tables or passages of the source.

Key:
[1] = tested on: PTZ-induced behavior in zebrafish larvae; assay: Suppression of PTZ-induced behavior in zebrafish larvae; type: in vivo
Protocol: Differences between behavioral profiles of larval zebrafish treated with KCC2 inhibitors and larval zebrafish treated with PTZ were investigated by evaluating the ability of traditional anti-seizure drugs to reverse their effects. Five drugs in at least six concentrations (by allocating 12 wells per concentration) were tested. These drugs included a benzodiazepine anxiolytic (diazepam), two AEDs that increase GABA levels in the synapse (tiagabine and valproate), a sodium channel blocker (phenytoin) and a synthetic neurosteroid GABAA positive allosteric modulator (PAM, ganaxolone).

[2] = tested on: VU0463271-induced phenotype (KCC2 inhibition) in zebrafish larvae; assay: animal or person; details: for EC50: Danio rerio, read-out: in vivo EC50; for peak activity: concentration of peak effect, doses 2.5-320 uM, suppression of KCC2-inhibited phenotype in zebrafish
Protocol: To quantify the ability of the same drugs to reverse (or “rescue”) the phenotype caused by either 2.5 μM VU0463271 or 5 μM VU0240551, a rescue score between 0 (no rescue) and 1 (maximal theoretical rescue) was calculated (FIG. 2C). A rescue score incorporates and quantifies the degree of phenotypic reversal and the level of sedation in each concentration tested (see Materials and Methods below).
A diverse collection of 37,000 uncharacterized small molecules were used in a suppressor screen against either 2.5 μM VU0463271 (27,000 compounds) or 5 μM VU0240551 (10,000 compounds), along with 3,700 control wells treated with DMSO alone and 3,700 control wells treated with the KCC2 inhibitor. Each well of a 96-well plate containing at least about 8 zebrafish larvae was treated with a library compound or DMSO followed by treatment with the KCC2 inhibitor. Behavioral profiles pre- and post-treatment with the KCC2 inhibitor were evaluated using the behavioral assay battery described herein, and a detailed quantitative readout of about 15,000 time points was generated for each well. These behavioral profiles were used to calculate a screening score for each library compound, which incorporates and quantifies the rescue score and sedation index (see Materials and Methods).
In some cases, small molecules that alter the KCC2 inhibition phenotype may reverse the behavioral phenotype back to the normal, but could also elicit a new undesired phenotype, which is different from a normal behavior. To discriminate between these possibilities, vector algebra was used to compare each behavioral profile to the behavioral profile of DMSO-treated larvae and defined a value for the phenotypic distance from DMSO. The screen score of each compound was then plotted against its averaged phenotypic distance from DMSO (FIG. 3A) and MI (FIG. 3B) to filter out compounds that elicit a profile that is very different from the control one and compounds that reduce overall activity, respectively.
The reproducibility of the effects and the active concentration ranges of the 30 hits selected, as described above, were determined. Their rescue efficacies were retested in at least six concentrations and their rescue scores were also recalculated.
TT0023831 and six analogs were tested at a range of doses from 2.5-320 uM in a behavioral assay designed to assess the ability of compounds to suppress the effects of KCC2 inhibition. The graphs of FIG. 11 indicate the degree of suppression of the KCC2-inhibited phenotype, where a score of 1 represents complete restoration of KCC2-treated zebrafish to normal. […] Table 4 summarizes the estimated EC50 values and peak effect values for each compound.
A large number of fertilized zebrafish eggs (up to 20,000 embryos per day) were collected from group matings of wild type Ekkwill/Singapore zebrafish. Embryos were raised in hatching jars at 28° C. on a 14/10 hour light/dark cycle until 3 days post fertilization (dpf), then transferred to an incubator under the same conditions until 7 dpf. Groups of eight larvae (7 dpf) were distributed into the wells of a clear flat bottom square well 96-well plates filled with E3 medium (300 μl). Larvae were then incubated at 25° C. on the bench top for one-hour chemical treatment and subsequent experiments.
A library containing 37,000 uncharacterized small molecules was purchased from Life Chemicals and dissolved in DMSO at a stock concentration of 10 mM.

[3] = target: T1, Kv7.2/7.3 (KCNQ2/3) (Homo sapiens, UniProt O43525+O43526); assay: CHO-Kv7.2/7.3 (KCNQ2/3) 86Rb efflux assay; type: cell-based
T1 construct: expressed in transfected cells; host or cells: CHO
Protocol: Compounds were tested at concentrations from 0.001 μM to 30 μM to generate 10-point concentration-response curve (CRC) (n=2). Retigabine and ML213 were included as control activators of Kv7.2/7.3 (KCNQ2/3). Data was normalized to ^86Rb flux elicited by application of extracellular buffer containing 70 mM KCl.
Data were fit with “maximum activation” set at 100% of 70 mM KCl control stimulus.

Structure (SMILES) | EC50 [2] | peak activity [2] | other results
CN1C(=O)CN=C(c2ccccc2)c2cc(Cl)ccc21 [diazepam] |  |  | prevention of the formation of the PTZ-induced behavior ([1]; zebrafish, in vivo): almost completely prevented
CCOc1ccc(Br)cc1S(=O)(=O)NCCN1CCOCC1 [TT0048134, 5-bromo-2-ethoxy-N-(2-morpholinoethyl)benzene-sulfonamide] | 15 µM | 20 µM | 
COc1cc(S(=O)(=O)NCCN2CCOCC2)c(OC)cc1C [TT0048874, 2,5-dimethoxy-4-methyl-N-(2-morpholinoethyl)benzene-sulfonamide] | 40 µM | 160 µM | 
O=C1NC(=O)C(c2ccccc2)(c2ccccc2)N1 [phenytoin] |  |  | prevention of the formation of the PTZ-induced behavior ([1]; pre-treatment, 160 μM, data not shown): almost no effect
COc1cc(C)c(C)cc1S(=O)(=O)NCCN1CCOCC1 [TT0038280, 2-methoxy-4,5-dimethyl-N-(2-morpholinoethyl)benzene-sulfonamide] | 40 µM | 80 µM | 
CCCOc1nn(CCC)cc1C(=O)Nc1ccc(C(F)(F)F)c(F)c1 [TT0000367, N-(3-fluoro-4-(trifluoromethyl)phen-yl)-3-propoxy-1-propyl-1H-pyrazole-4-carboxamide] |  |  | suppression score dose response compared with other compounds as suppressor of the hyperexcitability phenotype ([2]; zebrafish, FIG. 8 / FIG. 10): outperform the other compounds tested; EC50 ([3]; 10-point CRC 0.001-30 μM, n=2, fit with maximum activation set at 100% of 70 mM KCl control, read-out: EC50): > 30 µM; Emax ([3]; 86Rb flux normalized to 70 mM KCl control, read-out: Max Flux %): 21%; EC50 ([3]; Table 7, first line of values, read-out: EC50 (μM, raw)): > 30 µM; EC50 ([3]; Table 7, second, unlabelled line of values, read-out: EC50 (μM, raw)): > 30 µM; Conc μM @ Max Flux ([3]; concentration at which maximal 86Rb flux was seen): 0.01 µM; Fitted Max % ([3]; fit, maximum activation set at 100% of 70 mM KCl control stimulus): 100%
COc1cc(C)c(C(C)C)cc1S(=O)(=O)NCC1CCCO1 (stereo not drawn) [TT0048274, 5-isopropyl-2-methoxy-4-methyl-N-((tetrahydrofuran-2-yl)methyl)benzenesulfonamide] | > 160 µM | >160 µM | 
COc1cc(C)c(Br)cc1S(=O)(=O)NCCN1CCOCC1 [TT0027052, 5-bromo-2-methoxy-4-methyl-N-(2-morpholinoethyl)benzene-sulfonamide] | 5 µM | 20 µM | 
COc1ccc(C(C)C)cc1S(=O)(=O)NCCN1CCOCC1 [TT0048803, 5-isopropyl-2-methoxy-N-(2-morpholinoethyl)benzene-sulfonamide] | < 5 µM | 20 µM | 
CC(=O)[C@H]1CC[C@H]2[C@@H]3CC[C@H]4C[C@](C)(O)CC[C@]4(C)[C@H]3CC[C@]12C [ganaxolone] |  |  | prevention of the formation of the PTZ-induced behavior ([1]; pre-treatment, non-sedative concentration 0.31 μM, data not shown): almost completely prevented
Cc1ccsc1C(=CCCN1CCC[C@@H](C(=O)O)C1)c1sccc1C [tiagabine, reference compound] |  |  | rescue of the behavioral profile induced by KCC2 inhibition (rescue score 0-1) ([2]; phenotype caused by 2.5 μM VU0463271 or 5 μM VU0240551, at least six concentrations): most effective; prevention of the formation of the PTZ-induced behavior ([1]; pre-treatment, non-sedative concentration 40 μM, data not shown): almost completely prevented
